Test [1] has as its target T1, CDK2/Cyclin E1 (Homo sapiens, UniProt P24941).
T1 construct: purchased Eurofins 14-475
In words: ADPGLO (CDK2/E1-37C) ADP-Glo Luminescent Kinase Assay. The test is classed as biochemical. As to conditions: 0.18 nM CDK2/Cyclin E1, 100 μM ATP, 1.5 μM Histone H1, 37° C., 60 min preincubation. The protocol: Example A2: ADPGLO (CDK2/E1-37C)
Inhibition of CDK2/Cyclin E1 activity by the presence of small molecules was evaluated using ADP-Glo Luminescent Kinase Assay (Promega). Activated CDK2/Cyclin E1 was incubated with its substrate Histone H1 (SignalChem H10-54N) in the kinase reaction buffer (100 μM ATP, 50 mM HEPES pH 7.5, 10 mM MgCl2, 1 mM EDTA, 2 mM DTT, 0.01% Brij35, 0.5 mg/mL BSA). Luminescence was recorded with an Envision plate reader (PerkinElmer).
Dose titrations of inhibitors in 100% DMSO were combined with 0.36 nM CDK2/Cyclin E1 in reaction buffer. The mixtures were incubated for 60 minutes at 37° C. before the addition of ATP and Histone H1 substrate to initiate the kinase reaction. The final conditions were 0.18 nM CDK2/Cyclin E1, 100 μM ATP, and 1.5 μM Histone H1. The reactions were incubated at 37° C. for 90 minutes before being stopped with the addition of ADP-Glo reagent. This mixture was incubated at room temperature for 60 minutes before Kinase Detection Solution is added to generate luminescence. The stopped reactions were analyzed on an Envision plate reader. The conversion ratios were normalized to yield % activity, plotted against compound concentration, and fit to a four-parameter equation to determine the IC50 for each compound.

Test [2] relates to Kuramochi cells labeled with mApple-H2B. Put plainly: IncuCyte cell proliferation assay. The test is classed as cell-based. As to conditions: Kuramochi RB-WT cells, 72 hours, cell count normalized to DMSO. The protocol: Example A3: IncuCyte® Cell Proliferation Assay
IncuCyte® assay was used to measure the effect of disclosed compounds on cell proliferation. Fluorescent microscopy images of cells were taken immediately after compound treatment and 72 hours later. Image analysis software was used to obtain cell counts as a function of compound concentration. Kuramochi cells labeled with mApple-H2B were seeded on 384-well assay-ready plates. Plates were placed in an IncuCyte® (Sartorius) and scanned at 0 and 72 hours. IncuCyte® software was used to count the number of fluorescent nuclei in each well. The fold change in cell count from 0 to 72 hours in wells treated with increasing compounds concentrations (10 pts, 1/2 log dilution, 20 μM top concentration) was normalized to DMSO control wells. The normalized cell counts were fit with dose response curves and a GI50 was calculated.

Test [3] deals with T1, CDK2/Cyclin E1. Put plainly: CDK2/Cyclin E1 Caliper LabChip EZ Reader mobility shift assay. The format is biochemical. The following applies: 2.5 nM CDK2/Cyclin E1, 100 μM ATP, 1.5 μM fluorescent peptide, 30 min preincubation; read-out: Caliper Assay (CDK2/CCNE1): IC50. The protocol: Example A1: CDK2/Cyclin E1 Caliper Assay
Inhibition of CDK2/Cyclin E1 activity in the presence of compounds of the present disclosure was evaluated using a Caliper LabChip® EZ Reader mobility shift assay. In the assay, CDK2/Cyclin E1 (Eurofins, 14-475) catalyzed the phosphorylation of a fluorescently tagged peptide 5-FAM-QSPKKG-CONH2 (PerkinElmer, FL Peptide 18) which induced a difference in capillary electrophoresis mobility. The peptide substrate and product were measured, and the conversion ratio was used to determine the inhibition (as % activity and IC50 values) of CDK2/Cyclin E1. Reactions contained 50 mM HEPES pH 7.5, 10 mM MgCl2, 1 mM EDTA, 2 mM DTT, 0.01% Brij35, 0.5 mg/mL BSA, 0.1% DMSO, 2.5 nM CDK2/Cyclin E1, 100 μM ATP, and 1.5 μM fluorescent peptide substrate.
Dose titrations of inhibitors in 100% DMSO were combined with 3.25 nM CDK2/Cyclin E1 and 130 μM of ATP in reaction buffer. The mixtures were incubated for 30 minutes before the addition of fluorescent peptide substrate to initiate the kinase reaction. The final conditions were 2.5 nM CDK2/Cyclin E1, 100 μM ATP, and 1.5 μM fluorescent peptide. The reactions were stopped after 100 minutes with the addition of EDTA (400 mM final EDTA concentration). The stopped reactions were analyzed on a Caliper LabChip® EZ Reader II. The conversion ratios were normalized to yield % activity, plotted against compound concentration, and fit to a four-parameter equation to determine the IC50 for each compound.

17 molecules from patent US20260152494A1, “CDK2 INHIBITORS AND METHODS OF USING THE SAME” (Cedilla Therapeutics, Inc., priority 2022, published 2026) can be followed below.

Consider `C[C@@H](OCC1CCCCC1)[C@H](NC(=O)[C@H]1CN(C(=O)c2cncs2)CC12CCOCC2)C(=O)N1CCC(c2ccc(C(=O)O)cc2)CC1` (single isomer, unassigned) [I-4 1st, 4-(1-(O-(cyclohexylmethyl)-N-(2-(thiazole-5-carbonyl)-8-oxa-2-azaspiro[4.5]decane-4-carbonyl)-L-threonyl)piperidin-4-yl)benzoic acid], for which the IC50 against CDK2/Cyclin E1 [1] was above 10 µM; in test [2], above 20 µM.

As to `C[C@@H](OCC1CCCCC1)[C@H](NC(=O)[C@@H]1CN(C(=O)c2cncs2)CC12CCOCC2)C(=O)N1CCC(c2ccc(C(=O)O)cc2)CC1` (single isomer, unassigned) [I-4 2nd, 4-(1-(O-(cyclohexylmethyl)-N-(2-(thiazole-5-carbonyl)-8-oxa-2-azaspiro[4.5]decane-4-carbonyl)-L-threonyl)piperidin-4-yl)benzoic acid], the IC50 at CDK2/Cyclin E1 [1] is above 10 µM; in test [2], above 20 µM.

As for `C[C@@H](OCC1CCCCC1)[C@H](NC(=O)[C@@H]1CN(Cc2cnn(Cc3ccccc3)c2)C(=O)C12CN(C(=O)[C@H]1CC1(C)C)C2)C(=O)N1CCC(c2nccs2)CC1` [Compound I-5, (S)-6-((1-benzyl-1H-pyrazol-4-yl)methyl)-N-((2S,3R)-3-(cyclohexylmethoxy)-1-oxo-1-(4-(thiazol-2-yl)piperidin-1-yl)butan-2-yl)-2-((S)-2,2-dimethylcyclopropane-1-carbonyl)-5-oxo-2,6-diazaspiro[3.4]octane-8-carboxamide], the IC50 (against CDK2/Cyclin E1 [1]; in test [2]) was at most 0.5 µM throughout.

For `CC1(C)C[C@@H]1C(=O)N1CC2(C1)C(=O)N(Cc1cncs1)CC2c1nnc(C(F)(F)c2ccc(Cl)c(Cl)c2)o1` (stereo partly drawn) [Compound I-6, 8-(5-((3,4-dichlorophenyl)difluoromethyl)-1,3,4-oxadiazol-2-yl)-2-((S)-2,2-dimethylcyclopropane-1-carbonyl)-6-(thiazol-5-ylmethyl)-2,6-diazaspiro[3.4]octan-5-one], the IC50 was above 10 µM at CDK2/Cyclin E1 [3], above 100 µM against CDK2/Cyclin E1 [1] and above 20 µM in test [2].

Take `CC(=O)N[C@@H](C(=O)NC1CN(C(=O)c2cncs2)CC12CN(C(=O)[C@H]1CC1(C)C)C2)[C@H](C)OCC1CCCCC1` (stereo partly drawn) [Compound I-24, (2R,3S)-2-acetamido-3-(cyclohexylmethoxy)-N-(2-((S)-2,2-dimethylcyclopropane-1-carbonyl)-6-(thiazole-5-carbonyl)-2,6-diazaspiro[3.4]octan-8-yl)butanamide]: the values for the IC50 (on CDK2/Cyclin E1 [3]; in test [2]) were 1 to 10 µM and above 20 µM, respectively.

For `CC(=O)N[C@@H](C(=O)NC1CN(C(=O)c2cnn(Cc3ccccc3)c2)CC12CN(C(=O)[C@H]1CC1(C)C)C2)[C@H](C)OCC1CCCCC1` (stereo partly drawn) [Compound I-25, (2R,3S)-2-acetamido-N-(6-(1-benzyl-1H-pyrazole-4-carbonyl)-2-((S)-2,2-dimethylcyclopropane-1-carbonyl)-2,6-diazaspiro[3.4]octan-8-yl)-3-(cyclohexylmethoxy)butanamide], the IC50 is 0.1 to 1 µM on CDK2/Cyclin E1 [3] and above 20 µM in test [2].

Consider `C[C@@H](OCC1CCCCC1)[C@H](NC(=O)C1CS(=O)(=O)CC12CN(C(=O)[C@H]1CC1(C)C)C2)C(=O)N1CCCCC1` (stereo partly drawn) [Compound I-26, N-((2S,3R)-3-(cyclohexylmethoxy)-1-oxo-1-(piperidin-1-yl)butan-2-yl)-2-((S)-2,2-dimethylcyclopropane-1-carbonyl)-6-thia-2-azaspiro[3.4]octane-8-carboxamide 6,6-dioxide], for which the IC50 on CDK2/Cyclin E1 [3] was above 10 µM; in test [2], above 20 µM.

`CC1(C)C[C@@H]1C(=O)N1CC2(CN(C(=O)c3cncs3)CC2C#N)C1` (stereo partly drawn) [Compound I-27, 2-((S)-2,2-dimethylcyclopropane-1-carbonyl)-6-(thiazole-5-carbonyl)-2,6-diazaspiro[3.4]octane-8-carbonitrile]: the IC50 at CDK2/Cyclin E1 [3] was above 10 µM; in test [2], above 20 µM.

As to `CCOC(=O)[C@@H]1CN(C(C)=O)CC12CN(C(C)=O)C2` [Compound I-28, ethyl (S)-2,6-diacetyl-2,6-diazaspiro[3.4]octane-8-carboxylate], the IC50 was above 10 µM on CDK2/Cyclin E1 [3] and above 20 µM in test [2].

Turning to `CNC(=O)[C@@H](NC(=O)[C@@H]1CN(C(=O)c2cnn(Cc3ccccc3)c2)CC12CN(C(=O)N(C)C1CC1)C2)[C@@H](C)OCC1CCCCC1` [Compound I-30, (S)-6-(1-benzyl-1H-pyrazole-4-carbonyl)-N8-((2S,3R)-3-(cyclohexylmethoxy)-1-(methylamino)-1-oxobutan-2-yl)-N2-cyclopropyl-N2-methyl-2,6-diazaspiro[3.4]octane-2,8-dicarboxamide], the IC50 at CDK2/Cyclin E1 [3] is 0.1 to 1 µM; in test [2] it was above 20 µM.

`C[C@@H](OCC1CCCCC1)[C@H](NC(=O)[C@@H]1CNCC12CN(C(=O)[C@H]1CC1(C)C)C2)C(=O)N1CCOCC1` [Compound I-32, (S)—N-((2S,3R)-3-(cyclohexylmethoxy)-1-morpholino-1-oxobutan-2-yl)-2-((S)-2,2-dimethylcyclopropane-1-carbonyl)-2,6-diazaspiro[3.4]octane-8-carboxamide]: the IC50 is above 10 µM on CDK2/Cyclin E1 [3] and above 20 µM in test [2].

Regarding `C[C@@H](OCC1CCCCC1)[C@H](NC(=O)[C@@H]1CN(C(=O)OC(C)(C)C)CC12CN(C(=O)[C@H]1CC1(C)C)C2)C(=O)N1CCOCC1` [Compound I-33], the values for the IC50 (at CDK2/Cyclin E1 [3]; in test [2]) were 1 to 10 µM and above 20 µM, respectively.

As to `CC(=O)N1C[C@@H](C(=O)N[C@H](C(=O)N2CCOCC2)[C@@H](C)OCC2CCCCC2)C2(C1)CN(C(=O)[C@H]1CC1(C)C)C2` [Compound I-36, (S)-6-acetyl-N-((2S,3R)-3-(cyclohexylmethoxy)-1-morpholino-1-oxobutan-2-yl)-2-((S)-2,2-dimethylcyclopropane-1-carbonyl)-2,6-diazaspiro[3.4]octane-8-carboxamide], the IC50 was above 10 µM at CDK2/Cyclin E1 [3] and above 20 µM in test [2].

Consider `C[C@@H](OCC1CCCCC1)[C@H](NC(=O)[C@@H]1CNCC12CN(C(=O)[C@H]1CC1(C)C)C2)C(=O)N1CCCCC1` [Compound I-37, (S)—N-((2S,3R)-3-(cyclohexylmethoxy)-1-oxo-1-(piperidin-1-yl)butan-2-yl)-2-((S)-2,2-dimethylcyclopropane-1-carbonyl)-2,6-diazaspiro[3.4]octane-8-carboxamide], for which the IC50 at CDK2/Cyclin E1 [3] is above 10 µM; in test [2], above 20 µM.

On to `C[C@@H](OCC1CCCCC1)[C@H](NC(=O)[C@@H]1CN(C(=O)OC(C)(C)C)CC12CN(C(=O)[C@H]1CC1(C)C)C2)C(=O)N1CCCCC1` [Compound I-38], for which the IC50 on CDK2/Cyclin E1 [3] was 1 to 10 µM; in test [2] it was above 20 µM.

Regarding `CNC(=O)[C@@H](NC(=O)[C@@H]1CN(C(C)=O)CC12CN(C(=O)[C@H]1CC1(C)C)C2)[C@@H](C)OCC1CCCCC1` [Compound I-39], the IC50 was above 10 µM on CDK2/Cyclin E1 [3] and above 20 µM in test [2].

Consider `C[C@@H](OCC1CCCCC1)[C@H](NC(=O)C1CN(C(=O)c2cncs2)CC12CCN(C(=O)[C@H]1CC1(C)C)CC2)C(=O)N1CCC(c2ccc(C(=O)O)cc2)CC1` (stereo partly drawn) [Compound I-41, 4-(1-(O-(cyclohexylmethyl)-N-(8-((S)-2,2-dimethylcyclopropane-1-carbonyl)-2-(thiazole-5-carbonyl)-2,8-diazaspiro[4.5]decane-4-carbonyl)-L-threonyl)piperidin-4-yl)benzoic acid], for which the IC50 against CDK2/Cyclin E1 [1] is at most 0.5 µM; in test [2] it was above 20 µM.
